Our source for the IC50 values is patent publication US7662819B2, “Pteridinone derivatives for use as stearoyl CoA desaturase inhibitors” (Gilead Palo Alto, Inc., priority 2007, dated 2010).

This test deals with T1, stearoyl-CoA desaturase (SCD) (Rattus norvegicus, UniProt P07308).
T1 construct: from tissue; host or cells: liver microsomes of male Sprague Dawley rats, with SCD induced by a carbohydrate-rich diet after fasting/feeding cycles
T1 sequence (P07308 1-358): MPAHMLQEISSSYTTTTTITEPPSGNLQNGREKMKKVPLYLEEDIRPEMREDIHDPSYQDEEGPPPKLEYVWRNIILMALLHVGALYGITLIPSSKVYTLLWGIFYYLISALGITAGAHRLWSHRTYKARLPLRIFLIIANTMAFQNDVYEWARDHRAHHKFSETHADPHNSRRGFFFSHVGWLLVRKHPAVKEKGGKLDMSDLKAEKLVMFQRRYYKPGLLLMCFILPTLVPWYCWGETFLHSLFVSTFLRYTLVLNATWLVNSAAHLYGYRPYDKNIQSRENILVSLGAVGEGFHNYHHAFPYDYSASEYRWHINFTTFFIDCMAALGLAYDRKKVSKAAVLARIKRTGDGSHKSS
The experiment in a line: SCD assay in rat liver microsomes ([3H]stearoyl CoA desaturation, adapted from Talamo and Bloch). It is filed as biochemical. To be noted: rat liver microsomes 0.2 mg/ml assay final, 30 min preincubation, 45 min reaction, room temperature. An excerpt: The identification of compounds of the invention as SCD inhibitors was readily accomplished using the SCD enzyme and microsomal assay procedure described in Talamo and Bloch (1969) Analytical Biochemistry 29:300-304.
The rat liver microsomes were collected according to the procedure described in Ozols (1990) Methods Enzm, 182:225.
Male Spraque Dawley Rats were placed on regimented fasting protocol for one week to stimulate SCD enzymatic activity. 48-hour periods were alternated between feeding and fasting to induce and down-regulate SCD activity with SCD activity being induced via carbohydrate rich diet prior to liver perfusion and collection.
The rats were anesthetized with Isoflurane inhalation anesthetic, the liver perfused with cold phosphate buffered saline (PBS), weighed, and chilled in cold homogenization buffer (250 mM sucrose, 10 mM Tris, 1 mM EDTA, pH 7.6.
The livers were finely minced and placed in homogenization tube. 40 mL of homogenization buffer was added to the homogenization tube and the liver homogenized and centrifuged in a pre-chilled […] for 10 min at 4° C.
Following centrifugation, the supernatant was collected and the pellet removed and discarded. The supernatant was centrifuge at 10,000 G for 35 minutes. Following centrifugation, the supernatant was collect and the pellet discarded. The supernatant was then centrifuged in a pre-chilled 45-Ti rotor at 130,000 G (41,000 RPM) for 90 minutes at 4° C.
The supernatant was then aspirated off and the collected microsomal pellet washed in 25 mL of Glycerol PBS (1×PBS 7.4, 20% Glycerol) and resuspended in 4-5 volumes of Glycerol PBS.
The protein concentration of the microsomal preparation was determined by BCA assay (Pierce) and the microsomes were aliquoted and stored at −80° C.
Biobeads were ground to a smaller size in a mortar and pestle and resuspended in 3.6% TCA. The beads were then filtered through […] mesh.
SCD was determined in the desaturase assay buffer. This assay buffer contained 0.1 M Tris buffer, pH 7.2, 2 mM NADH, 4.8 mM ATP, 0.5 mM CoA, 4.8 mM MgCl2, and 0.1% BSA.
The Procedure for the SCD Assay (Adapted from Talamo and Bloch (1969) Analytical Biochemistry 29:300-304)
1 μl of each compound of Formula I was added to an assay plate by a low volume (0.5-10 μL) multichannel pipette. A DMSO control was also prepared. The microsomes were quickly thawed and added to assay buffer so that a concentration of 0.4 mg/ml was achieved (0.2 mg/ml assay final). 50 μl of the microsome suspension in assay buffer was then added into each well in the compound assay plate, the plate was covered, and the microsomes preincubated with the compounds for 30 minutes on the orbital shaker, 50-75 rpm, at room temperature.
After preincubation, the reaction was initiated by the addition of 50 μl of substrate solution (20 μM Stearoyl CoA, [3H]Stearoyl CoA, 74 nCi) to the preincubated microsomes/compound suspensions in MilliQ (Millipore) H2O. The reaction mixtures were then incubated for 45 minutes on the orbital shaker at 50-75 rpm at room temperature.
The reaction was terminated by the addition of 10 μl of 21% […] (TCA) to the reaction mixture followed incubation on the orbital shaker for 30 minutes at 50-75 rpm at room temperature followed by centrifugation for 5 minutes at 3700 rpm.
50 μl of a 6% Bio-Bead suspension in H2O was added to the reaction mixture and the assay plate was sealed. The Bio-Bead mixture was incubated on the orbital shaker for 1 hour, 100-150 rpm at room temperature, and then the mixture was centrifuged at 2000 g for 5 minutes to pellet the Bio-Beads.
25 μl of the supernatant was harvested from each well and transferred to a detection plate. 100 μl of OptiPhase SuperMix scinitillation cocktail (containing sufficient NaOH to neutralize the TCA) was added and the solutions mixed by vigorous shaking (300-400 rpm) for 5 minutes at room temperature. […]
A general note: Liver microsomes are vesicles of endoplasmic reticulum, rich in cytochrome P450 enzymes.
As usually defined, the IC50 is the concentration that inhibits the measured activity by half. Higher therefore signals weaker potency in that assay. With `COc1ccc(-c2nc3cnc(NCc4ccc(Cl)c(Cl)c4)nc3n(CCNC(C)=O)c2=O)cc1` [Compound 1, N-[2-(2-{[(3,4-dichlorophenyl)methyl]amino}-6-(4-methoxyphenyl)-7-oxo-8-hydropteridin-8-yl)ethyl]acetamide], the half-maximal inhibitory concentration (IC50) stood at 0.16 µM.

For `COc1ccc(-c2nc3cnc(NCc4ccc(Cl)c(Cl)c4)nc3n(CCNC(=O)c3cccc(C)c3)c2=O)cc1` [Compound 30, N-[2-(2-{[(3,4-dichlorophenyl)methyl]amino}-6-(4-methoxyphenyl)-7-oxo(8-hydropteridin-8-yl))ethyl](3-methylphenyl)carboxamide], half-maximal inhibition (IC50) required 3.27 µM.

For the compound `O=C(NCCn1c(=O)cnc2cnc(NCc3ccc(Cl)c(Cl)c3)nc21)c1ccccc1` [Compound 34, N-[2-(2-{[(3,4-dichlorophenyl)methyl]amino}-7-oxo(8-hydropteridin-8-yl))ethyl]benzamide], the concentration for half-maximal inhibition (IC50) stood at 2.72 µM.

On to `CC(=O)NCCn1c(=O)c(-c2cccnc2)nc2cnc(NCc3cccc(Cl)c3)nc21` [Compound 27, N-[2-(2-{[(3-chlorophenyl)methyl]amino}-7-oxo-6-(3-pyridyl)-8-hydropteridin-8-yl)ethyl]acetamide], for which the IC50 turned out to be 9.1 µM.

In turn, `COc1ccc(-c2nc3cnc(NCc4ccc(Cl)c(Cl)c4)nc3n(CCNC(=O)c3ccccc3)c2=O)cc1` [Compound 7, N-[2-(2-{[(3,4-dichlorophenyl)methyl]amino}-6-(4-methoxyphenyl)-7-oxo(8-hydropteridin-8-yl))ethyl]benzamide] gave an IC50 of 0.56 µM.

In turn, `CC(=O)NCCn1c(=O)c(-c2ccc(Cl)cc2)nc2cnc(NCc3cccc(Cl)c3)nc21` [Compound 26, N-[2-(6-(4-chlorophenyl)-2-{[(3-chlorophenyl)methyl]amino}-7-oxo-8-hydropteridin-8-yl)ethyl]acetamide] displayed an IC50 of 7.8 µM.

Compound `O=C(NCCn1c(=O)c(-c2cccnc2)nc2cnc(NCc3ccc(Cl)c(Cl)c3)nc21)c1ccsc1` [Compound 37, N-[2-(2-{[(3,4-dichlorophenyl)methyl]amino}-7-oxo-6-(3-pyridyl)(8-hydropteridin-8-yl))ethyl]-3-thienylcarboxamide] came in with an IC50 of 5.01 µM.

Take `COCC(=O)NCCn1c(=O)c(-c2ccc(OC)cc2)nc2cnc(NCc3ccc(Cl)c(Cl)c3)nc21` [Compound 8, N-[2-(2-{[(3,4-dichlorophenyl)methyl]amino}-6-(4-methoxyphenyl)-7-oxo(8-hydropteridin-8-yl))ethyl]-2-methoxyacetamide]: it took 1.8 µM to reach half-maximal inhibition (IC50).

For `O=C(NCCn1c(=O)c(-c2cccnc2)nc2cnc(NCc3ccc(Cl)c(Cl)c3)nc21)c1ccccc1` [Compound 36, N-[2-(2-{[(3,4-dichlorophenyl)methyl]amino}-7-oxo-6-(3-pyridyl)(8-hydropteridin-8-yl))ethyl]benzamide], the 50% inhibitory concentration (IC50) was determined as 4.06 µM.

With `CC(=O)NCCn1c(=O)cnc2cnc(NCc3ccc(Cl)cc3)nc21` [Compound 28, N-[2-(2-{[(4-chlorophenyl)methyl]amino}-7-oxo-8-hydropteridin-8-yl)ethyl]acetamide], half-maximal inhibition (IC50) was put at 21.9 µM.

`CCC(=O)NCCn1c(=O)c(-c2ccc(OC)cc2)nc2cnc(NCc3ccc(Cl)c(Cl)c3)nc21` [Compound 6, N-[2-(2-{[(3,4-dichlorophenyl)methyl]amino}-6-(4-methoxyphenyl)-7-oxo-8-hydropteridin-8-yl)ethyl]propanamide] returned a 50% inhibitory concentration (IC50) of 2.8 µM.

`COc1ccc(-c2nc3cnc(NCc4ccc(F)cc4)nc3n(CCNC(C)=O)c2=O)cc1` [Compound 10, N-[2-(2-{[(4-fluorophenyl)methyl]amino}-6-(4-methoxyphenyl)-7-oxo-8-hydropteridin-8-yl)ethyl]acetamide] yielded an IC50 of 1.3 µM.

`CC(=O)NCCn1c(=O)c(-c2cccs2)nc2cnc(NCc3ccc(F)c(F)c3)nc21` [Compound 19, N-[2-(2-{[(3,4-difluorophenyl)methyl]amino}-7-oxo-6-(2-thienyl)-8-hydropteridin-8-yl)ethyl]acetamide] came in with an IC50 of 3.4 µM.

Compound `O=C(NCCn1c(=O)c(-c2cccnc2)nc2cnc(NCc3ccc(Cl)c(Cl)c3)nc21)c1ccc(F)cc1` [Compound 38, N-[2-(2-{[(3,4-dichlorophenyl)methyl]amino}-7-oxo-6-(3-pyridyl)(8-hydropteridin-8-yl))ethyl](4-fluorophenyl)carboxamide] registered an IC50 of 1.18 µM.

`COc1ccc(-c2nc3cnc(NCc4ccc(Cl)c(Cl)c4)nc3n(CCNC(=O)c3cccnc3)c2=O)cc1` [Compound 4, N-[2-(2-{[(3,4-dichlorophenyl)methyl]amino}-6-(4-methoxyphenyl)-7-oxo(8-hydropteridin-8-yl))ethyl]-3-pyridylcarboxamide] had a half-inhibitory concentration (IC50) of 1.6 µM.

As for `O=c1c(-c2cccnc2)nc2cnc(NCc3ccc(Cl)c(Cl)c3)nc2n1CCn1cncn1` [Compound 15, 2-{[(3,4-dichlorophenyl)methyl]amino}-6-(3-pyridyl)-8-(2-(1,2,4-triazolyl)ethyl)-8-hydropteridin-7-one], the 50% inhibitory concentration (IC50) is 5.8 µM.

`O=C(NCCn1c(=O)cnc2cnc(NCc3ccc(Cl)c(Cl)c3)nc21)c1ccsc1` [Compound 35, N-[2-(2-{[(3,4-dichlorophenyl)methyl]amino}-7-oxo(8-hydropteridin-8-yl))ethyl]-3-thienylcarboxamide]: the IC50 was determined as 6.12 µM.

As to `CC(=O)NCCn1c(=O)c(-c2cccs2)nc2cnc(NCc3ccc(Cl)c(Cl)c3)nc21` [Compound 14, N-[2-(2-{[(3,4-dichlorophenyl)methyl]amino}-7-oxo-6-(2-thienyl)-8-hydropteridin-8-yl)ethyl]acetamide], half-maximal inhibition (IC50) was put at 2 µM.

Regarding `COc1ccc(-c2nc3cnc(NCc4ccc(Cl)c(Cl)c4)nc3n(CCNC(C)=O)c2=O)cc1F` [Compound 22, N-[2-(2-{[(3,4-dichlorophenyl)methyl]amino}-6-(3-fluoro-4-methoxyphenyl)-7-oxo-8-hydropteridin-8-yl)ethyl]acetamide], the IC50 was found to be 2.21 µM.

In the case of `CC(=O)NCCn1c(=O)cnc2cnc(NCc3ccc(Cl)c(Cl)c3)nc21` [Compound 17, N-[2-(2-{[(3,4-dichlorophenyl)methyl]amino}-7-oxo-8-hydropteridin-8-yl)ethyl]acetamide], the IC50 is 0.34 µM.

In turn, `COc1ccc(-c2nc3cnc(NCc4ccc(Cl)c(Cl)c4)nc3n(CCNS(C)(=O)=O)c2=O)cc1` [Compound 2, 2-{[(3,4-dichlorophenyl)methyl]amino}-6-(4-methoxyphenyl)-8-{2-[(methylsulfonyl)amino]ethyl}-8-hydropteridin-7-one] returned an IC50 of 2.8 µM.

Take `COc1ccc(-c2nc3cnc(NCc4ccc(Cl)c(Cl)c4)nc3n(CCNC(=N)N)c2=O)cc1` [Compound 16, amino[2-(2-{[(3,4-dichlorophenyl)methyl]amino}-6-(4-methoxyphenyl)-7-oxo(8-hydropteridin-8-yl))ethyl]carboxamidine]: the midpoint of inhibition, the IC50, lay at 11 µM.

Compound `COc1ccc(-c2nc3cnc(NCc4cccc(Cl)c4)nc3n(CCNC(C)=O)c2=O)cc1` [Compound 24, N-[2-(2-{[(3-chlorophenyl)methyl]amino}-6-(4-methoxyphenyl)-7-oxo-8-hydropteridin-8-yl)ethyl]acetamide] displayed an IC50 of 1.3 µM.
